The values that follow come from patent publication US8592435B2, “Nitrogen-containing six-membered aromatic ring derivatives and pharmaceutical products containing the same” (Daiichi Sankyo Company, Limited, priority 2007, dated 2013).

The subject of experiment [1] is microsphere (micro-embolism) model. The experiment in a line: Test Example 6: rat microsphere (micro-embolism) model. Format: in vivo, Crl:CD(SD) rats. The note with it: rats, oral 1.0 mg/kg once daily for 10 days (Compound 65 also 0.1 mg/kg); 2 weeks after surgery. The source says:
According to the method of Ichiro Date et al. [Journal of Neuroscience Research 78; 442-453 (2004)], 8-week-old male Crl:CD(SD) rats were used. Animals were anesthetized with halothane and midline incision was made. Right carotid artery was separated and a thread was looped around the common carotid artery and external carotid artery. The pterygopalatine artery was temporarily clipped with an aneurysm clip. The blood flow through the common carotid artery and external carotid artery was temporarily interrupted and 0.1 mL of a microsphere suspension composed of microspheres dispersed in a 30% sucrose solution (1800 microspheres/0.1 mL) was injected into the common carotid artery. After injection of the suspension, the puncture of the injection needle was filled with instant glue while the blood flow was interrupted. The blood flow was then restored and the surgical wound was sutured. Neurological symptoms were observed the day following the surgery. The animals were assigned to each treated group at random with respect to the measurements of neurological symptoms, the decrease in body weight from the previous day, and the body weight on that day.
The test compounds used were Example Compound 65, 108, 130, 135 and 137, each of which was administered at a dose of 1.0 mg/kg. Example Compound 65 was administered also at a dose of 0.1 mg/kg. Each compound was orally administered once daily for 10 days starting from the following day of the surgery. Coordinated motor functions were measured 5 times on an accelerated rota-rod (4 to 40 rpm/5 min) 2 weeks after the surgery.
Specifically, FIGS. 11 to 15 show the effect of different compounds 2 weeks after the microsphere injection (rota-rod test standard parameter). The figures show the results of rota-rod tests 2 weeks after the ischemic event in which each compound was orally administered at 1.0 mg/kg once daily for 10 days (Example Compound 65 was administered at 0.1 mg/kg or 1.0 mg/kg). What is shown in the figures is the total time of the 5 measurements on rota-rod as a standard parameter.
***: p<0.0001, Dunnett's multiple range test vs. Vehicle.

The test system of experiment [2] is mixture of human vascular endothelial cells and fibroblasts. Put plainly: Test Example 2: ability to promote angiogenesis (angiogenesis test kit KZ-1000). Format: cell-based. The note with it: for activity at 3 µM / activity at 0.3 µM: Homo sapiens, 216 h, lumen length, % of control, day 9, read-out: Promotion of angiogenesis (%); for activity at 3 µM: Compound Conc. = 3 μM; for activity at 0.3 µM: Compound Conc. = 0.3 μM. The procedure:
Using an angiogenesis test kit containing a mixture of human vascular endothelial cells and fibroblasts [KZ-1000; Kurabo], the ability of test compounds to promote angiogenesis was evaluated. Each test compound was added on days 1, 4, and 7 of the incubation period. On day 9, cells were immunostained with CD31 and photographed. Control cells were cultured under the same conditions, only without the addition of a test compound, and photographed.
The lumen length of the blood vessel was quantified from the obtained images using an angiogenesis-quantification software. The ability (%) of each test compound to promote angiogenesis was calculated from the following equation: The ability to promote angiogenesis (%)=[(measurement with a compound of interest)/(measurement of control)]×100
Example Compounds shown in Table 26 were used as test compounds.
Since bFGF gives a measurement of about 120 in this test, 120 is used as the threshold to determine whether a given compound has the ability to promote angiogenesis.

Experiment [3] concerns hippocampal neurons. Put plainly: Test Example 1: ability to promote axonal outgrowth. Type of experiment: cell-based, Wistar rats. The note with it: for activity at 3 µM: Hippocampal neuron, 216 h, Compound Conc. = 3 μM, % of control, rat hippocampal neurons, day 9, read-out: Promotion of axonal outgrowth (%). In short, it runs like this: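 Embryonic day-18 Wistar rat hippocampal neurons were cultured at 37° C, treated with AraC from day 3, and given compound at 3 μM and 0.3 μM on days 3 and 7. On day 9, GAP-43-stained axons were quantified and expressed as % of control; bFGF-based threshold is 120.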

Experiment [4] has as its target T1, chemokine receptor CCR3 (Homo sapiens, UniProt P51677).
T1 sequence (P51677 1-355): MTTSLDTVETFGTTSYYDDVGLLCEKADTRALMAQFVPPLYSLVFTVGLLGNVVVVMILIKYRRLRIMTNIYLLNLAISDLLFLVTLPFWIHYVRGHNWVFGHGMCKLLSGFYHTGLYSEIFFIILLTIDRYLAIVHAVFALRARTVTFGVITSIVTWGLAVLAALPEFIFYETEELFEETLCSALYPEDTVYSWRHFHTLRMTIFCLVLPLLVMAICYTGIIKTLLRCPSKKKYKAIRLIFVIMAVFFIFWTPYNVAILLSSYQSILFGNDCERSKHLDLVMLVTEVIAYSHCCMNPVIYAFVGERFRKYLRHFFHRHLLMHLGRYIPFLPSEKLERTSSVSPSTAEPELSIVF
Put plainly: Affinity to chemokine receptor CCR3. Type of experiment: binding. The note with it: at a concentration of 10 μM. The source says:
Although the compounds of the present invention are novel compounds, compounds having a partly similar skeleton are described, for example, in Published Japanese Translation of PCT International Application No. 2003-507456, WO 01/79170 and WO 00/23076.

Experiment [5] relates to critical limb ischemia model (left femoral artery excised). Put plainly: Test Example 4: lower limb ischemia (critical limb ischemia) model in mice. Type of experiment: in vivo, Balb/c mice. The note with it: oral once daily 0.1 or 1.0 mg/kg for 10 days from femoral artery excision, vs Vehicle. Here is the method: According to the method of Ichiro Masaki [Circ Res. 90; 966-973 (2002)], the left femoral artery of Balb/c mice was excised to establish a model of critical limb ischemia (n=29 to 30).
Test compounds used were Example Compounds 65, 92, 114, 130, 135 and 136, each of which was orally administered once daily at a dose of 0.1 mg/kg or 1.0 mg/kg for 10 days starting from the day of femoral artery excision.
The results are shown in FIGS. 1 to 6 in which FIGS. 1, 2, 3, 4, 5 and 6 show the results of Example Compounds 65, 92, 114, 130, 135 and 136, respectively.
In the figures, a thick solid line indicates a Vehicle group, a thin dotted line indicates a group administered 0.1 mg/kg/day of each compound, and a thin solid line indicates a group administered 1.0 mg/kg/day of each compound.
*: P<0.05, **: P<0.01, ***: P<0.001 vs Vehicle by Wilcoxon's test.

Experiment [6] deals with spinal cord neurons. The experiment in a line: Test Example 3: ability to promote the neurite outgrowth of spinal cord neurons. Type of experiment: cell-based, Wistar rats. The note with it: for Promotion of spinal cord neurite outgrowth (%): Compound Conc. = 0.1 μM, % of control, day 3. Here is the method:
According to the method of Martin G. Hanson Jr. [J. Neurosci., 1998 Sep. 15; 18(18): 7361-71], the spinal cord region was isolated from 15-day embryos of female Wistar rats and the cells were dispersed using the papain dissociation system. Neurons were collected using 6.8% Metrizamide density gradient and were suspended in 2% FBS+Leibovitz's −15 medium so that the density of the cells will be 2×10^3 cells/well/200 μL. 200 μL of the cell suspension was inoculated on a poly-D-lysine/laminin-coated 96 well plate and the plate was incubated in an incubator at 37° C. Test compounds were added 1 hour after seeding of cells.
On day 3 of the incubation period, neurons were stained with Calcein-AM and the lengths of neurites were determined using IN Cell Analyzer (GE Healthcare Bioscience).
The ability (%) of each test compound to promote neurite outgrowth was calculated from the following equation: The ability to promote neurite outgrowth (%)=[(measurement with a compound of interest)/(measurement of control)]×100
Example Compounds 65, 71, 74, 92, 130 and 135 were used as test compounds and were each added at a concentration of 0.1 μM.
The results are shown in Table 27. bFGF gives a measurement of about 130 in this test.

The mark [7] stands for this setting: reference, concentration not given, used as threshold.

On to `CN(C(=O)COc1ccc(Cl)nn1)C1CCN(C(=O)C2CC2)CC1` [Compound 135, 2-(6-chloropyridazine-3-yloxy)-N-(1-(cyclopropanecarbonyl)piperidine-4-yl)-N-methylacetamide], for which, in experiment [1], the “coordinated motor functions, total time of 5 measurements on rota-rod” value (shortened to “coordinated motor functions, total time”) is “highly effective in ameliorating ischemic cerebral infarction”. Moreover, the activity at 3 µM in experiment [2] amounted to 140%; in experiment [3] it was 131%. Further, the “affinity to chemokine receptor CCR3” value in experiment [4] turned out to be 22%. Moreover, in experiment [5], the “survival rate of lower limb” value is reported as “increased survival rate”. In addition, the “Promotion of spinal cord neurite outgrowth (%)” value (from here on “Promotion … (%)”) in experiment [6] amounted to 121%.

Turning to `Cc1nc(OCC(=O)N(C)C2CCN(Cc3ccc(F)cc3)CC2)nc(C)c1N` [Compound 85, 2-(5-amino-4,6-dimethylpyrimidine-2-yloxy)-N-(1-(4-fluorobenzyl)piperidine-4-yl)-N-methylacetamide], the activity at 3 µM in experiment [2] came out at 123%; in experiment [3] it was 140%. Besides, the “affinity to chemokine receptor CCR3” value in experiment [4] amounted to 2.4%.

For the compound `CN(C(=O)COc1ccc(Cl)nn1)C1CCN(Cc2ccccc2)CC1` [Compound 137, N-(1-benzylpiperidine-4-yl)-2-(6-chloropyridazine-3-yloxy)-N-methylacetamide], the “coordinated motor functions, total time” value in experiment [1] is listed as “highly effective in ameliorating ischemic cerebral infarction”.

For “bFGF: basic fibroblast growth factor (bFGF), a growth factor known to promote angiogenesis; reference that sets the threshold”, the “Promotion of angiogenesis, measurement of bFGF in this test” value in experiment [2] (setting [7]) was “about 120%”. The “Promotion of axonal outgrowth, measurement of bFGF in this test” value in experiment [3] (setting [7]) was “about 120%”. Also, the “Promotion of spinal cord neurite outgrowth, measurement of bFGF in this test” value in experiment [6] (reference, concentration not given) is reported as “about 130%”.

For the compound `Cc1nc(OCC(=O)N(C)C2CCN(CC3CCCCC3)CC2)nc(C)c1N` [Compound 71, 2-(5-amino-4,6-dimethylpyrimidine-2-yloxy)-N-(1-(cyclohexylmethyl)piperidine-4-yl)-N-methylacetamide], the activity at 3 µM is 126% in experiment [2] and 140% in experiment [3]. Further, the “Promotion … (%)” value in experiment [6] is 139%.

As to `Cc1nc(OCC(=O)N(C)C2CCN(C(=O)C3CC3)CC2)nc(C)c1N` [Compound 92, 2-(5-amino-4,6-dimethylpyrimidine-2-yloxy)-N-(1-(cyclopropanecarbonyl)piperidine-4-yl)-N-methylacetamide], the activity at 3 µM in experiment [2] is 153%; in experiment [3], 127%. For the same compound, the “survival rate of lower limb” value in experiment [5] is listed as “increased survival rate”. For the same compound, the “Promotion … (%)” value in experiment [6] came to 120%.

As to `Cc1cnc(N)nc1NCC(=O)N(C)C1CCN(CC2CC2)CC1` [Compound 108, 2-(2-amino-5-methylpyrimidine-4-ylamino)-N-(1-(cyclopropylmethyl)piperidine-4-yl)-N-methylacetamide], the “coordinated motor functions, total time” value in experiment [1] is “highly effective in ameliorating ischemic cerebral infarction”. Also, the activity at 0.3 µM in experiment [2] is 114%. Besides, the activity at 3 µM in experiment [3] was 122%.

`Cc1nc(OCC(=O)N(C)C2CCN(C(=O)c3ccccc3)CC2)nc(C)c1N` [Compound 74, 2-(5-amino-4,6-dimethylpyrimidine-2-yloxy)-N-(1-benzoylpiperidine-4-yl)-N-methylacetamide]: the activity at 3 µM in experiment [2] turned out to be 136%; in experiment [3], 159%. Further, the “Promotion … (%)” value in experiment [6] worked out at 125%.

For the compound `CN(C(=O)Cn1cc(F)c(N)nc1=O)C1CCN(Cc2ccccc2)CC1` [Compound 114, 2-(4-amino-5-fluoro-2-oxopyrimidine-1(2H)-yl)-N-(1-benzylpiperidine-4-yl)-N-methylacetamide], the activity at 3 µM in experiment [2] is 125%; in experiment [3], 183%. The “survival rate of lower limb” value in experiment [5] is reported as “increased survival rate”.

Regarding `CNc1nccnc1OCC(=O)N(C)C1CCN(Cc2ccccc2)CC1.Cl` [Compound 130, N-(1-benzylpiperidine-4-yl)-N-methyl-2-(3-(methylamino)pyrazine-2-yloxy)acetamide hydrochloride], the “coordinated motor functions, total time” value in experiment [1] is reported as “highly effective in ameliorating ischemic cerebral infarction”. Moreover, the activity at 0.3 µM in experiment [2] is 118%. In addition, the activity at 3 µM in experiment [3] came out at 143%. In experiment [4], the “affinity to chemokine receptor CCR3” value was found to be 3.5%. The “survival rate of lower limb” value in experiment [5] is “increased survival rate”. Besides, in experiment [6], the “Promotion … (%)” value worked out at 128%.

In the case of `CN(C)c1ccc(OCC(=O)N(C)C2CCN(C(=O)C3CC3)CC2)nn1` [Compound 136, N-(1-(cyclopropanecarbonyl)piperidine-4-yl)-2-(6-(dimethylamino)pyridazine-3-yloxy)-N-methylacetamide], the activity at 0.3 µM in experiment [2] came out at 110%. For the same compound, the activity at 3 µM in experiment [3] was found to be 133%. Further, the “survival rate of lower limb” value in experiment [5] is given as “increased survival rate”.
